The values that follow come from patent US20250179531A1, “COMPOSITIONS AND METHODS FOR HOMOLOGY-DIRECTED REPAIR GENE MODIFICATION” (VOR BIOPHARMA INC., priority 2022, published 2025).

Assay type in all cases: cell-based, human
Data set [1] relates to CCR5 gene. Kind of data set: ICE analysis of sequencing data, Pvu1 site insertion into CCR5 in CD34+ cells. As to conditions: for HDR-mediated editing efficiency (promoting HDR): CD34+ cells in SCGM with hSCF, FLT3-L, TPO, added to RNP and ssODN, FIG. 4A; for efficiency of HDR in CD34+ cells: SR1 and UM171, in the presence or in the absence of IL-6. As for the experimental part:
The presence of the Pvu1 restriction site in the CCR5 locus was also detected by sequencing. Sequencing data was analyzed via inference of CRISPR/Cas9 (ICE) software to quantify the percent of insertion of the 6 nucleotide Pvu1 site.
To determine conditions that would enhance HDR-mediated editing efficiency, the role of media conditions was assessed. CD34+ cells were cultured in stromal cell growth media (SCGM) supplemented with human stem cell factor (hSCF), Fms-like tyrosine kinase 3 Ligand (FLT3-L), and thrombopoietin (TPO) to promote cell differentiation and proliferation. Using ICE analysis of sequencing data to detect Pvu1 restriction site insertion into the CCR5 gene of CD34+ cells, cells were electroporated with DNA repair modulators to skew repair pathway utilization toward HDR following Cas9 cleavage in combination with cell expansion compounds Interleukin-6 (IL6), StemRegenin 1 (SR1), and UM171 in addition to RNP and ssODN. DNA repair modulators investigated included SCR7 (a ligase IV inhibitor), NU7441 (a DNA-PK inhibitor), Rucaparib (a PARP inhibitor), and RS-1 (an HDR enhancer).

Data set [2] deals with RAB11a locus. Nature of the data set: Flow cytometry of EGFP reporter from capped dsODN integrated at RAB11a in T cells. The conditions noted are these: 3 μg Cas9, 3 μg RAB11a sgRNA, 1 μg capped dsODN; NU7441 1 μM, SCR7 5 μM, and/or SR1 5 μM in media 24 hours post-electroporation. An excerpt: Two respective capped, dsODNs were designed comprising an EGFP reporter and homology arms to direct integration at either the AAVS1 or RAB11a loci in T cells (FIG. 16A-16B). T cells were electroporated with dsODN and Cas9 RNP as described herein. Flow cytometry analyses were used to confirm EGFP expression in electroporated T cells. Approximately 20% of cells electroporated with capped, AAVS1 dsODN and 38% of cells electroporated with capped, RAB11a dsODN were GFP positive (FIG. 17A).
For orientation: In flow cytometry, cells or beads pass a laser one at a time.

In data set [3] the test system is T cells. Kind of data set: T cell viability after electroporation and addition of NHEJ modulators. As to conditions: NU7441 1 μM, SCR7 5 μM, and/or SR1 5 μM in media 24 hours post-electroporation.
Data set [4] deals with GBA gene. Kind of data set: Editing of the GBA gene in CD34+ cells, ICE analysis of sequencing data. An excerpt:
CD34+ cells were electroporated with RNP comprising the designed sgRNAs and with the designed ssODNs. Cells were screened by ICE analysis of sequencing data.
To optimize HDR-mediated editing of the GBA gene loci associated with Gaucher disease, ssODN candidates were screened for their ability to promote high editing efficiencies. Four ssODNs (ssODN1-4) comprising a sequence with a modification to generate the N409S mutation in exon 9 of the GBA gene and two ssODNs (ssODN5 and ssODN6) comprising a sequence with a modification to generate the L483P mutation in exon 10 of the GBA gene were screened. CD34+ cells were electroporated with different combinations of RNPs and ssODNs that corresponded to their respective target sequences, as described above, grown for 2-3 days, and then analyzed for cell viability and by sequencing (FIG. 10A).

As for `O=c1cc(N2CCOCC2)oc2c(-c3cccc4c3sc3ccccc34)cccc12` [NU7441], in data set [1], the “HDR-mediated editing efficiency (promoting HDR)” value (from here on “HDR-mediated editing efficiency”) is “no significant advantage”. Also, the “increase in GFP expression” value in data set [2] is given as “approximately 10%”. Further, the T cell viability result in data set [3] is “reduced”.

With `O=C(Nc1ccc(Br)cc1)c1ccc(Br)c(S(=O)(=O)NCc2ccccc2)c1` [RS-1], in data set [1], the “HDR-mediated editing efficiency” value is listed as “no significant advantage”.

For `CNCc1ccc(-c2[nH]c3cc(F)cc4c3c2CCNC4=O)cc1` [Rucaparib], the “HDR-mediated editing efficiency” value in data set [1] is “no significant advantage”.

With `O=c1[nH]c(=S)[nH]c(N=Cc2ccccc2)c1N=Cc1ccccc1` [SCR7], the “HDR-mediated editing efficiency” value in data set [1] was “no significant advantage”. Further, in data set [2], the “increase in GFP expression” value is recorded as “approximately 10%”.

Regarding `CC(C)n1cnc2c(NCCc3ccc(O)cc3)nc(-c3csc4ccccc34)nc21` [SR1, StemRegenin 1], in data set [1], the “HDR-mediated editing efficiency” value is recorded as “improved” and the “efficiency of HDR in CD34+ cells” value is “significantly increase”. Moreover, in data set [2], the “increase in GFP expression” value is reported as “approximately 10%”. Also, the T cell viability result in data set [3] is “reduced”.

As to `Cn1nnc(-c2ccc3c(c2)[nH]c2nc(Cc4ccccc4)nc(NC4CCC(N)CC4)c23)n1` (stereo not drawn) [UM171], in data set [1], the “HDR-mediated editing efficiency” value was “improved” and the “efficiency of HDR in CD34+ cells” value was “significantly increase”. As to Interleukin-6 [IL6], the “HDR-mediated editing efficiency” value in data set [1] is recorded as “improved”. Besides, the overall editing efficiency entry in data set [1] (presence or absence of IL6 in CD34+ cell media, FIG. 4B) was “did not significantly affect”. The HDR entry in data set [1] (presence or absence of IL6 in CD34+ cell media, FIG. 4C) is listed as “did not significantly affect”. In the case of “SG1: Cas9 sgRNA to human GBA, position 1226; targeting domain ACAUGGUACAGGAGGUUCUA (SEQ ID NO: 3) (as printed in the source, key not given here)”, the “editing efficiency of exon 9 of the GBA gene” value in data set [4] was “high editing efficiency”. Still for that read-out and setting: to “SG2: Cas9 sgRNA to human GBA, position 1226; targeting domain CACAUGGUACAGGAGGUUCU (SEQ ID NO: 6) (as printed in the source, key not given here)” belongs “high editing efficiency”; to “SG4: Cas9 sgRNA to human GBA, position 1226; targeting domain CUAGAACCUCCUGUACCAUG (SEQ ID NO: 12) (as printed in the source, key not given here)”, “high editing efficiency”. Turning to “SG6: Cas9 sgRNA to human GBA, position 1448; targeting domain UGCCAGUCAGAAGAACGACC (SEQ ID NO: 18) (as printed in the source, key not given here)”, the “editing efficiency of exon 10 of the GBA gene” value in data set [4] was “high editing efficiency”. As to “SG7: Cas9 sgRNA to human GBA, position 1448; targeting domain GCAUCAGUGCCACUGCGUCC (SEQ ID NO: 21) (as printed in the source, key not given here)”, in data set [4], the “editing efficiency of exon 10 of the GBA gene” value is “high editing efficiency”.
